Reference: patent publication EP0175304A2 (LABORATORI BALDACCI Spa, priority 1984, dated 1986)
Like-named read-outs stand apart in the source and are kept apart here.

Columns and labels:
platelet aggregation = platelet aggregation in vitro according to Born, inducer arachidonic acid; type: cell-based, human; settings: inducer 1 mM arachidonic acid
Experimental: (§1) Inhibition of platelet aggregation was evaluated in vitro according to the Born method with various inducers (arachidonic acid, adrenalin, collagen) using as the substrate human plasma from healthy donors. For some new compounds the generation of thromboxane B2 and 6-keto-PGF according to the De Fryen method was evaluated. Platelet aggregation was studied in two successive periods: immediately after addition of the derivative and after 15 minutes of incubation at 37°C.
On some of the compounds which are the object of the present invention differentiated independently of the magnitude of the antiinflamatory, analgesic and antipyretic effect, preliminary tests in vitro were performed under the experimental conditions set forth above for the purpose of evaluating their effect on platelet reactivity.

growing Swiss mouse = assay: acute toxicity (LD50 and toxic symptomatology), intraperitoneal administration; type: in vivo; settings: ip
Experimental: (§2) The compounds of the invention were tested to evaluate their antiinflammatory, analgesic, antipyretic, platelet aggregation inhibition and cytostatic pharmacological effects. At the same time acute toxicity tests were made in the mouse with evaluation of LD 50 and of the symptomatology resulting from the treatment.
(§3) LD 50 and toxic symptomatology resulting from the treatment were evaluated in the growing Swiss mouse by intraperitoneal administration of the different compounds. The period of observation was extended for 10 days after administration and the value of the lethal dose was calculated by graphic interpolation of the number of deaths.
(§4) In Table II are given acute toxicity data (LD50 calculated with the graphic method) obtained in the mouse after intraperitoneal administration of the various compounds and the symptomatological observations attributable to the treatment.

[1] = as above; type: in vivo; settings: in vivo, mouse, ip, 10 days observation, graphic interpolation; for LD50 at 10 days: Swiss
Experimental: as §2, §3, §4

growing male Wistar rat [2] = assay: antiinflammatory action, carrageenin-induced paw edema; type: in vivo; settings: one dosage per product, 5-100 mg/kg, see column 'Dosage mg/kg ip'
growing male Wistar rat [3] = assay: antipyretic action, beer yeast-induced hyperthermia; type: in vivo; settings: one dosage per product, 5-100 mg/kg, see column 'Dosage mg/kg ip'
Fibrosarcoma 3T3-B77 = assay: cytostatic action on fibrosarcoma cell line; type: cell-based; settings: compounds added in vitro in different concentrations
Experimental: (§5) Cytostatic action was tested on cellular lines of Fibrosarcoma 3T3-B77 obtained by conversion of 3T3 Bald/C fibroblasts by Bratislava 77 strain RSV virus and on MELANOMA B16-Fl cells.
(§6) The influence of cellular proliferation induced by the addition in vitro of the compounds in different concentrations was evaluated.

MELANOMA B16-Fl cells = assay: cytostatic action on melanoma cells; type: cell-based; settings: compounds added in vitro in different concentrations
Experimental: as §5, §6

male Wistar rat = assay: analgesic action, Randall and Selitto method (carrageenin-inflamed paw); type: in vivo; settings: one dosage per product, 5-100 mg/kg, see column 'Dosage mg/kg ip'
[4] = haematic and urine rates after oral treatment (HPLC); type: in vivo; settings: rat, 50 mg/kg os
Experimental: To preliminarily complete the pharmacological profile of the new series of compounds which are the object of the present invention and making reference to compound 8 a pharmacological test was performed in the rat and a subacute toxicity test was performed in the same animal species. Determination was performed with HPLC of the content in biological liquids.

TXB2 = assay: generation of TXB2 on whole blood after stimulation with collagen; type: cell-based; settings: collagen 1 μg/ml
Experimental: as §1
The results obtained on the generation of TXB2 and 6-Keto-PGF evaluated to determine preliminarily the level of interaction on the biochemical. mechanisms underlying increased platelet reactivity are given in Table X.

O=C(O)CCO/N=C/c1cccs1 [compound 22]
Percentage response variation AM (platelet aggregation; 5.10^-4 M): +80.5%
Percentage response variation Lagt (platelet aggregation; 5.10^-4 M): +276.0%
Percentage response variation AM (platelet aggregation; 5.10^-5 M): +38.3%
Percentage response variation Lagt (platelet aggregation; 5.10^-5 M): +12.0%
Symptomatology (growing Swiss mouse): passivity
LD50 at 240 h [1]: 1800 mg/kg

CC(C)=NOCCC(=O)O [compound 3]
Symptomatology (growing Swiss mouse): passivity
LD50 at 240 h [1]: 300 mg/kg

COc1ccc(C(C)=NOCCC(=O)O)cc1 [compound 12]
Symptomatology (growing Swiss mouse): passivity
LD50 at 240 h [1]: 850 mg/kg

O=C(O)CCO/N=C/c1ccc2c(c1)OCO2 [compound 21]
Symptomatology (growing Swiss mouse): passivity
LD50 at 240 h [1]: 525 mg/kg

O=C(O)CCON=C(c1ccccc1)c1ccccc1 [compound 7]
Symptomatology (growing Swiss mouse): passivity
LD50 at 240 h [1]: 300 mg/kg

O=C(O)CCON=Cc1ccccc1Cl [compound 17]
Percentage response variation AM (platelet aggregation; 5.10^-4 M): -79.8%
Percentage response variation Lagt (platelet aggregation; 5.10^-4 M): +273.9%
Percentage response variation AM (platelet aggregation; 5.10^-5 M): -33.3%
Percentage response variation Lagt (platelet aggregation; 5.10^-5 M): +60.0%
Symptomatology (growing Swiss mouse): passivity
LD50 at 240 h [1]: 400 mg/kg

CC(=NOCCC(=O)O)c1ccccc1 [compound 6]
Symptomatology (growing Swiss mouse): passivity
LD50 at 240 h [1]: 600 mg/kg

CC(CO/N=C/c1ccccc1)C(=O)O (stereo not drawn) [compound 24]
Antiinflammatory action (maximum % response in first 4 hours) (growing male Wistar rat [2]): 35%
Symptomatology (growing Swiss mouse): passivity
LD50 at 240 h [1]: 750 mg/kg
Antipyretic action (maximum % response in first 4 hours) (growing male Wistar rat [3]): 40%
influence on cellular proliferation (Fibrosarcoma 3T3-B77): significant influence on cellular proliferation
influence on cellular proliferation (MELANOMA B16-Fl cells): significant influence on cellular proliferation
Analgesic action (maximum % response in first 4 hours) (male Wistar rat): 46%

O=C(O)CCO/N=C\c1ccccc1 [compound 23]
Symptomatology (growing Swiss mouse): passivity
LD50 at 10 days [1]: 510 mg/kg
influence on cellular proliferation (Fibrosarcoma 3T3-B77): significant influence on cellular proliferation
influence on cellular proliferation (MELANOMA B16-Fl cells): significant influence on cellular proliferation

O=C(O)CCON=C1CCCC1 [compound 1]
Symptomatology (growing Swiss mouse): agitation
LD50 at 240 h [1]: 200 mg/kg
influence on cellular proliferation (Fibrosarcoma 3T3-B77): significant influence on cellular proliferation
influence on cellular proliferation (MELANOMA B16-Fl cells): significant influence on cellular proliferation

CC(C)C(=NOCCC(=O)O)C(C)C [compound 5]
Symptomatology (growing Swiss mouse): agitation
LD50 at 10 days [1]: 400 mg/kg

O=C(O)CCO/N=C/c1ccccc1 [compound 8]
concentration at 1 h ([4]; plasma, 1 hour): 180 µg/mL
concentration at 2 h ([4]; plasma, 2 hours): 145 µg/mL
concentration at 3 h ([4]; plasma, 3 hours): 142 µg/mL
concentration at 4 h ([4]; plasma, 4 hours): 141 µg/mL
concentration at 6 h ([4]; plasma, 6 hours): 140 µg/mL
concentration at 24 h ([4]; plasma, read-out: Plasma): 90 µg/mL
concentration at 48 h ([4]; plasma, read-out: Plasma): 53 µg/mL
concentration at 8 h ([4]; urine, 8 hours): 30 µg/mL
concentration at 24 h ([4]; urine, read-out: Urine): 80 µg/mL
concentration at 48 h ([4]; urine, read-out: Urine): 17 µg/mL
Percentage response variation AM (platelet aggregation; 5.10^-4 M): -32.3%
Percentage response variation Lagt (platelet aggregation; 5.10^-4 M): +114.3%
Percentage response variation AM (platelet aggregation; 5.10^-5 M): -1.5%
Percentage response variation Lagt (platelet aggregation; 5.10^-5 M): +10.7%
Symptomatology (growing Swiss mouse): passivity
LD50 at 10 days [1]: 600 mg/kg
Generation of TXB2 (TXB2; 5.10^-4 M, 5 min, control 41.2): 11.7 (41.2) μg/ml
Generation of TXB2 (TXB2; 5.10^-4 M, 15 min, control 26.5): 8.6 (26.5) μg/ml
Generation of TXB2 (TXB2; 5.10^-4 M, 30 min, control 36.5): 8.5 (36.5) μg/ml
Generation of TXB2 (TXB2; 5.10^-4 M, 60 min, control 65.8): 15.1 (65.8) μg/ml
Generation of TXB2 (TXB2; 5.10^-5 M, 5 min, control 41.2): 54.3 (41.2) μg/ml
Generation of TXB2 (TXB2; 5.10^-5 M, 15 min, control 26.5): 37.5 (26.5) μg/ml
Generation of TXB2 (TXB2; 5.10^-5 M, 30 min, control 36.5): 41.4 (36.5) μg/ml
Generation of TXB2 (TXB2; 5.10^-5 M, 60 min, control 65.8): 68 (65.8) μg/ml
influence on cellular proliferation (Fibrosarcoma 3T3-B77): significant influence on cellular proliferation
influence on cellular proliferation (MELANOMA B16-Fl cells): significant influence on cellular proliferation

O=C(O)CCON=Cc1ccc(Cl)cc1 [compound 14]
Symptomatology (growing Swiss mouse): passivity
LD50 at 240 h [1]: 350 mg/kg

O=C(O)CCON=C1CCCCC1 [compound 2]
Symptomatology (growing Swiss mouse): agitation
LD50 at 240 h [1]: 50 mg/kg
influence on cellular proliferation (Fibrosarcoma 3T3-B77): significant influence on cellular proliferation
influence on cellular proliferation (MELANOMA B16-Fl cells): significant influence on cellular proliferation

CCC(CO/N=C/c1ccccc1)C(=O)O (stereo not drawn) [compound 25]
Antiinflammatory action (maximum % response in first 4 hours) (growing male Wistar rat [2]): 35%
Symptomatology (growing Swiss mouse): passivity
LD50 at 240 h [1]: 800 mg/kg
Antipyretic action (maximum % response in first 4 hours) (growing male Wistar rat [3]): 35%
influence on cellular proliferation (Fibrosarcoma 3T3-B77): significant influence on cellular proliferation
influence on cellular proliferation (MELANOMA B16-Fl cells): significant influence on cellular proliferation
Analgesic action (maximum % response in first 4 hours) (male Wistar rat): 40%

CCCC(CCC)=NOCCC(=O)O [compound 4]
Symptomatology (growing Swiss mouse): passivity
LD50 at 240 h [1]: 450 mg/kg

CC(=NOCCC(=O)O)c1ccc(Cl)cc1 [compound 11]
Symptomatology (growing Swiss mouse): agitation
LD50 at 240 h [1]: 250 mg/kg

O=C(O)CCON=C1c2ccccc2-c2ccccc21 [compound 13]
Symptomatology (growing Swiss mouse): passivity
LD50 at 240 h [1]: 250 mg/kg
influence on cellular proliferation (Fibrosarcoma 3T3-B77): significant influence on cellular proliferation
influence on cellular proliferation (MELANOMA B16-Fl cells): significant influence on cellular proliferation

O=C(O)CCON=Cc1cccc(Cl)c1 [compound 18]
Symptomatology (growing Swiss mouse): passivity
LD50 at 240 h [1]: 325 mg/kg

O=C(O)CCON=Cc1ccco1 [compound 15]
Symptomatology (growing Swiss mouse): negligible
LD50 at 240 h [1]: 1500 mg/kg

COc1ccc(OC)c(C=NOCCC(=O)O)c1 [compound 16]
Percentage response variation AM (platelet aggregation; 5.10^-4 M): -13.3%
Percentage response variation Lagt (platelet aggregation; 5.10^-4 M): +28.0%
Percentage response variation AM (platelet aggregation; 5.10^-5 M): -16.1%
Percentage response variation Lagt (platelet aggregation; 5.10^-5 M): -8.0%
Symptomatology (growing Swiss mouse): passivity
LD50 at 240 h [1]: 600 mg/kg
